Laboratory results as given in patent US20030130355A1, “Therapeutic agents” (priority 2000, published 2003).

Legend:
rats = conditions: cited from earlier work
[1] = system: conscious, telemetered rats; format: in vivo, rat
From the text: The methods used were similar to those described in:
Brockway, B P, Mills, P A & Azar, S H (1991) A new method for continuous chronic measurement of blood pressure, heart rate and activity in the rat via radio-telemetry. Clinical and Experimental Hypertension—Theory and Practice A13(5), 885-895 and
Guiol, C, Ledoussal, C & Surgé, J-M (1992) A radiotelemetry system for chronic measurement of blood pressure and heart rate in the unrestrained rat. Validation of method. Journal of Pharmacological and Toxicological Methods 28, 99-105.
In brief, male rats (n=10) were implanted with a telemetry device for the measurement of arterial blood pressure and heart rate. Two weeks following implantation each animal received a single oral dose of vehicle, one dose of sibutramine or a combination of sibutramine and flesinoxan in a cross-over design. Measurements of blood pressure and heart rate were taken from each rat in sequence every three minutes for nine hours following drug administration and averaged into appropriate time-bins. Statistical comparisons were by the least significant difference or multiple t-test.
In FIGS. 1 and 2, shaded circles relate to the administration of vehicle alone p.o., shaded squares relate to the administration of sibutramine at 10 mg/kg p.o. and shaded triangles relate to the administration of sibutramine at 10 mg/kg p.o. together with flesinoxan at 30 mg/kg p.o. Statistical comparisons made by the least significant difference or multiple t-test are shown as *=p<0.05 versus vehicle and t=p<0.05 versus sibutramine.

CCCN(CCC)C1CCc2cccc(O)c2C1 (centres unmarked) [8-OH-DPAT]
food intake (rats): increases food intake

O=C(NCCN1CCN(c2cccc3c2OC[C@H](CO)O3)CC1)c1ccc(F)cc1 [flesinoxan]
effect on the increase in mean arterial blood pressure induced by sibutramine ([1]; flesinoxan 30 mg/kg p.o. co-administered with sibutramine 10 mg/kg p.o., FIG. 1): completely reversed
effect on the increase in heart rate produced by sibutramine ([1]; flesinoxan 30 mg/kg p.o. co-administered with sibutramine 10 mg/kg p.o., FIG. 2): prevented the increase in heart rate

CC(C)CC(N(C)C)C1(c2ccc(Cl)cc2)CCC1 (centres unmarked) [sibutramine, N-{1-[1-(4-chlorophenyl)cyclobutyl]-3-methylbutyl}-N,N-dimethylamine]
mean arterial blood pressure ([1]; sibutramine 10 mg/kg p.o. alone, versus vehicle, conscious telemetered male rats, nine hours, FIG. 1): significant increase
heart rate ([1]; sibutramine 10 mg/kg p.o. alone, conscious telemetered rats, FIG. 2): increase in heart rate
